In patent publication US12357711B2, “PSMA binding dual mode radiotracer and therapeutic” (Technische Universität München, priority 2019, dated 2025):

Tested on: SCID mice
Assay: Preclinical dosimetry from biodistribution in mice, extrapolated to 70-kg Standard Adult (OLINDA/EXM 1.0)
Type: in vivo
Settings: 1.0 h bladder voiding interval
Procedure: 3-5 mice were injected per timepoint with a mean 25.6±3.6 MBq of 18F-rhPSMA-7 and 28.5±4.8 MBq of 18F-rhPSMA-7.3, respectively. Mice, severe combined immunodeficiency (SCID) were used for the experiments.
Mice were sacrificed at the following timepoints: • ^18F-rhPSMA-7: 10, 20, 40, 60, 120 and 180 minutes after administration. • ^18F-rhPSMA-7.3: 10, 60, 120, 180 and 300 minutes after administration.
Urine, blood, heart, lung, spleen, pancreas, liver, stomach (emptied), small intestine (emptied), large intestine (emptied), kidneys, bladder, testis, fat, muscle (partial, femoral), femur, tail and brain. Urine was collected with a pipette in the CO2 gas chamber. In case of missing urination in the chamber the bladder was aspirated with an insulin syringe. Blood was withdrawn instantly after sacrifice with an insulin syringe from the heart. All other tissues and organs were dissected and transferred directly in plastic containers.
The counting rates of measurement samples were automatically corrected for decay. The radioactivity distribution ratios (unit: percentage of the injected dose (% ID) in the measurement samples were determined using the equation below. The sum of the counting rates from all measurement samples obtained from one mouse was designated as the counting rate for administrated radioactivity.
The radioactivity distribution ratio per unit weight of the measurement sample (unit: % ID/g) excluding urine and feces samples was determined by using the equation below. The weight of the measurement sample was determined by subtraction of the empty measurement container from the container including the sample.
For consistency of statistical calculations for each radiotracer the same number of time-points for ^18F-rhPSMA-7 and ^18F-rhPSMA-7.3 was used. Therefore, for ^18F-rhPSMA-7 the 10 min and 20 min time points were combined creating a 15 min endpoint.
The time-integral of activity for the accumulation in the significant source organs (AUCs) were generated both with numerical integration and physical decay according to J Juan et al., Journal of Pharmaceutical Sciences, 1993, 82:762-763.
In brief, to calculate a human dosimetry from the biodistribution in the mice, an extrapolation was necessary to account for the differences between the animals and humans. Normal-organ radiation doses were estimated for the 70-kg Standard Adult anatomic model using time-depending organ activity concentrations (in percent of the injected dose per gram, % ID/g) and total-body activities measured in the biodistribution studies in mice.
Tissue activity concentrations in mice were converted to tissue fractional activities in the 70-kg Standard Adult using the relative fractional organ masses in the Standard Adult and the “standard” 25-gramm mouse. Time-dependent total-body activity was fit to an exponential function and the difference between the injected activity and the total-body activity was assumed to be excreted to the urine because activity concentrations in the liver and GI tracer were low at all time points studied.
Organ residence time was calculated by numerical integration using the trapezoidal rule and the rest-of-body ^18F residence times was calculated as the difference between the total-body residence time and the sum of the organ and urine residence times. The bladder contents residence time was estimated using the dynamic voiding model in the OLINDA/EXM 1.0 dosimetry software. Finally, the Standard Adult mean organ dose equivalents (in mSv/MBq) and effective dose (also in mSv/MBq) were then calculated using OLIN DA/EXM 1.0.
Final calculation of radiation absorbed dose and dosimetry from biodistribution in mice: The tissues or organs in which a significant accumulation of radioactivity occurs (i.e., source organ) were kidney, spleen, lung, liver and heart. With respect to activity accumulation and clearance, a rapid clearance from blood and clearance to urine but relatively slow build-up in kidney was found.

[^19F][^natGa]D/L-Dap-R/S-DOTAGA-rhPSMA7 [rhPSMA7-rac]
Adrenals ED Cont.: 3.79E−05 mSv/MBq
Adrenals EDE Cont.: 0.00E000 mSv/MBq
Adrenals dose Alpha: 0.00E000 mSv/MBq
Adrenals dose Beta: 1.95E−03 mSv/MBq
Adrenals dose Photon: 5.64E−03 mSv/MBq
Adrenals dose Total: 7.59E−03 mSv/MBq
Brain ED Cont.: 2.24E−05 mSv/MBq
Brain EDE Cont.: 0.00E000 mSv/MBq
Brain dose Alpha: 0.00E000 mSv/MBq
Brain dose Beta: 1.95E−03 mSv/MBq
Brain dose Photon: 2.54E−03 mSv/MBq
Brain dose Total: 4.49E−03 mSv/MBq
Breasts ED Cont.: 2.10E−04 mSv/MBq
Breasts EDE Cont.: 6.30E−04 mSv/MBq
Breasts dose Alpha: 0.00E000 mSv/MBq
Breasts dose Beta: 1.95E−03 mSv/MBq
Breasts dose Photon: 2.25E−03 mSv/MBq
Breasts dose Total: 4.20E−03 mSv/MBq
Gallbladder Wall ED Cont.: 0.00E000 mSv/MBq
Gallbladder Wall EDE Cont.: 0.00E000 mSv/MBq
Gallbladder Wall dose Alpha: 0.00E000 mSv/MBq
Gallbladder Wall dose Beta: 1.95E−03 mSv/MBq
Gallbladder Wall dose Photon: 4.96E−03 mSv/MBq
Gallbladder Wall dose Total: 6.91E−03 mSv/MBq
Heart Wall ED Cont.: 0.00E000 mSv/MBq
Heart Wall EDE Cont.: 0.00E000 mSv/MBq
Heart Wall dose Alpha: 0.00E000 mSv/MBq
Heart Wall dose Beta: 8.82E−04 mSv/MBq
Heart Wall dose Photon: 3.48E−03 mSv/MBq
Heart Wall dose Total: 4.36E−03 mSv/MBq
Kidneys ED Cont.: 3.23E−04 mSv/MBq
Kidneys EDE Cont.: 3.88E−03 mSv/MBq
Kidneys dose Alpha: 0.00E000 mSv/MBq
Kidneys dose Beta: 4.70E−02 mSv/MBq
Kidneys dose Photon: 1.76E−02 mSv/MBq
Kidneys dose Total: 6.47E−02 mSv/MBq
LLI Wall ED Cont.: 1.10E−03 mSv/MBq
LLI Wall EDE Cont.: 5.52E−04 mSv/MBq
LLI Wall dose Alpha: 0.00E000 mSv/MBq
LLI Wall dose Beta: 1.95E−03 mSv/MBq
LLI Wall dose Photon: 7.25E−03 mSv/MBq
LLI Wall dose Total: 9.20E−03 mSv/MBq
Liver ED Cont.: 2.01E−04 mSv/MBq
Liver EDE Cont.: 0.00E000 mSv/MBq
Liver dose Alpha: 0.00E000 mSv/MBq
Liver dose Beta: 6.35E−04 mSv/MBq
Liver dose Photon: 3.39E−03 mSv/MBq
Liver dose Total: 4.02E−03 mSv/MBq
Lungs ED Cont.: 5.11E−04 mSv/MBq
Lungs EDE Cont.: 5.11E−04 mSv/MBq
Lungs dose Alpha: 0.00E000 mSv/MBq
Lungs dose Beta: 1.25E−03 mSv/MBq
Lungs dose Photon: 3.01E−03 mSv/MBq
Lungs dose Total: 4.26E−03 mSv/MBq
Muscle ED Cont.: 2.98E−05 mSv/MBq
Muscle EDE Cont.: 0.00E000 mSv/MBq
Muscle dose Alpha: 0.00E000 mSv/MBq
Muscle dose Beta: 1.95E−03 mSv/MBq
Muscle dose Photon: 4.01E−03 mSv/MBq
Muscle dose Total: 5.96E−03 mSv/MBq
Osteogenic Cells ED Cont.: 8.27E−05 mSv/MBq
Osteogenic Cells EDE Cont.: 2.48E−04 mSv/MBq
Osteogenic Cells dose Alpha: 0.00E000 mSv/MBq
Osteogenic Cells dose Beta: 4.18E−03 mSv/MBq
Osteogenic Cells dose Photon: 4.09E−03 mSv/MBq
Osteogenic Cells dose Total: 8.27E−03 mSv/MBq
Ovaries ED Cont.: 1.83E−03 mSv/MBq
Ovaries EDE Cont.: 2.29E−03 mSv/MBq
Ovaries dose Alpha: 0.00E000 mSv/MBq
Ovaries dose Beta: 1.95E−03 mSv/MBq
Ovaries dose Photon: 7.21E−03 mSv/MBq
Ovaries dose Total: 9.16E−03 mSv/MBq
Pancreas ED Cont.: 3.90E−05 mSv/MBq
Pancreas EDE Cont.: 0.00E000 mSv/MBq
Pancreas dose Alpha: 0.00E000 mSv/MBq
Pancreas dose Beta: 1.95E−03 mSv/MBq
Pancreas dose Photon: 5.86E−03 mSv/MBq
Pancreas dose Total: 7.80E−03 mSv/MBq
Red Marrow ED Cont.: 6.82E−04 mSv/MBq
Red Marrow EDE Cont.: 6.82E−04 mSv/MBq
Red Marrow dose Alpha: 0.00E000 mSv/MBq
Red Marrow dose Beta: 1.39E−03 mSv/MBq
Red Marrow dose Photon: 4.29E−03 mSv/MBq
Red Marrow dose Total: 5.68E−03 mSv/MBq
Skin ED Cont.: 4.32E−05 mSv/MBq
Skin EDE Cont.: 0.00E000 mSv/MBq
Skin dose Alpha: 0.00E000 mSv/MBq
Skin dose Beta: 1.95E−03 mSv/MBq
Skin dose Photon: 2.38E−03 mSv/MBq
Skin dose Total: 4.32E−03 mSv/MBq
Small Intestine ED Cont.: 3.87E−05 mSv/MBq
Small Intestine EDE Cont.: 0.00E000 mSv/MBq
Small Intestine dose Alpha: 0.00E000 mSv/MBq
Small Intestine dose Beta: 1.95E−03 mSv/MBq
Small Intestine dose Photon: 5.79E−03 mSv/MBq
Small Intestine dose Total: 7.73E−03 mSv/MBq
Spleen ED Cont.: 1.29E−04 mSv/MBq
Spleen EDE Cont.: 1.55E−03 mSv/MBq
Spleen dose Alpha: 0.00E000 mSv/MBq
Spleen dose Beta: 1.59E−02 mSv/MBq
Spleen dose Photon: 9.90E−03 mSv/MBq
Spleen dose Total: 2.58E−02 mSv/MBq
Stomach Wall ED Cont.: 7.98E−04 mSv/MBq
Stomach Wall EDE Cont.: 0.00E000 mSv/MBq
Stomach Wall dose Alpha: 0.00E000 mSv/MBq
Stomach Wall dose Beta: 1.95E−03 mSv/MBq
Stomach Wall dose Photon: 4.70E−03 mSv/MBq
Stomach Wall dose Total: 6.65E−03 mSv/MBq
Testes ED Cont.: 0.00E000 mSv/MBq
Testes EDE Cont.: 0.00E000 mSv/MBq
Testes dose Alpha: 0.00E000 mSv/MBq
Testes dose Beta: 1.95E−03 mSv/MBq
Testes dose Photon: 5.09E−03 mSv/MBq
Testes dose Total: 7.03E−03 mSv/MBq
Thymus ED Cont.: 2.57E−05 mSv/MBq
Thymus EDE Cont.: 0.00E000 mSv/MBq
Thymus dose Alpha: 0.00E000 mSv/MBq
Thymus dose Beta: 1.95E−03 mSv/MBq
Thymus dose Photon: 3.20E−03 mSv/MBq
Thymus dose Total: 5.15E−03 mSv/MBq
Thyroid ED Cont.: 2.59E−04 mSv/MBq
Thyroid EDE Cont.: 1.55E−04 mSv/MBq
Thyroid dose Alpha: 0.00E000 mSv/MBq
Thyroid dose Beta: 1.95E−03 mSv/MBq
Thyroid dose Photon: 3.23E−03 mSv/MBq
Thyroid dose Total: 5.17E−03 mSv/MBq
Total Body ED Cont.: 0.00E000 mSv/MBq
Total Body EDE Cont.: 0.00E000 mSv/MBq
Total Body dose Alpha: 0.00E000 mSv/MBq
Total Body dose Beta: 2.27E−03 mSv/MBq
Total Body dose Photon: 3.93E−03 mSv/MBq
Total Body dose Total: 6.19E−03 mSv/MBq
ULI Wall ED Cont.: 3.64E−05 mSv/MBq
ULI Wall EDE Cont.: 0.00E000 mSv/MBq
ULI Wall dose Alpha: 0.00E000 mSv/MBq
ULI Wall dose Beta: 1.95E−03 mSv/MBq
ULI Wall dose Photon: 5.33E−03 mSv/MBq
ULI Wall dose Total: 7.27E−03 mSv/MBq
Urinary Bladder Wall ED Cont.: 5.76E−03 mSv/MBq
Urinary Bladder Wall EDE Cont.: 6.92E−03 mSv/MBq
Urinary Bladder Wall dose Alpha: 0.00E000 mSv/MBq
Urinary Bladder Wall dose Beta: 7.87E−02 mSv/MBq
Urinary Bladder Wall dose Photon: 3.66E−02 mSv/MBq
Urinary Bladder Wall dose Total: 1.15 E−01 mSv/MBq
Uterus ED Cont.: 6.56E−05 mSv/MBq
Uterus EDE Cont.: 7.87E−04 mSv/MBq
Uterus dose Alpha: 0.00E000 mSv/MBq
Uterus dose Beta: 1.95E−03 mSv/MBq
Uterus dose Photon: 1.12E−02 mSv/MBq
Uterus dose Total: 1.31E−02 mSv/MBq
